ChEMBL document CHEMBL3885881, “DrugMatrix”

Species: Rattus norvegicus
Assay: DrugMatrix - Regimen: Daily Repeat
Type: toxicity, organism-based, Sprague-Dawley
Design: regimen Daily Repeat, gender Male, age 6-8 weeks
Conditions: in vivo, po, route oral GAVAGE, vehicle 100 % WATER; for ABSOLUTE BASOPHIL / ABSOLUTE EOSINOPHIL / ABSOLUTE LYMPHOCYTE / ABSOLUTE MONOCYTE / ABSOLUTE SEGMENTED NEUTROPHIL / BASOPHIL / EOSINOPHIL / ERYTHROCYTE COUNT / HEMATOCRIT / HEMOGLOBIN / LEUKOCYTE COUNT / LYMPHOCYTE / MEAN CORPUSCULAR HEMOGLOBIN / MEAN CORPUSCULAR HEMOGLOBIN CONCENTRATION / MEAN CORPUSCULAR VOLUME / MONOCYTE / NEUTROPHIL / NUCLEATED RED BLOOD CELLS / PLATELET COUNT: tissue Blood; for ALANINE AMINOTRANSFERASE / ALBUMIN / ALKALINE PHOSPHATASE / ASPARTATE AMINOTRANSFERASE / BLOOD UREA NITROGEN / CARBON DIOXIDE / CHLORIDE / CHOLESTEROL / CREATINE PHOSPHOKINASE / CREATININE / GLUCOSE / LACTATE DEHYDROGENASE / LIPASE / PHOSPHORUS / POTASSIUM / SODIUM / TOTAL BILIRUBIN / TOTAL PROTEIN / URIC ACID: tissue Plasma
[1] = 0 mg/kg, 72 h, dose level Control, time 3 day
[2] = 0 mg/kg, 120 h, dose level Control, time 5 day
[3] = 39 mg/kg, 72 h, dose level Low, time 3 day

C[C@]12Cc3c[nH]nc3C[C@@H]1CC[C@@H]1[C@@H]2CC[C@@]2(C)[C@H]1CC[C@]2(C)O [STANOZOLOL]
ABSOLUTE BASOPHIL [1]: 0 CELLS/uL
ABSOLUTE EOSINOPHIL [1]: 32.5 CELLS/uL
ABSOLUTE LYMPHOCYTE [1]: 9305.83 CELLS/uL
ABSOLUTE MONOCYTE [1]: 43.83 CELLS/uL
ABSOLUTE SEGMENTED NEUTROPHIL [1]: 817.83 CELLS/uL
BASOPHIL [1]: 0%
EOSINOPHIL [1]: 0.33%
ERYTHROCYTE COUNT [1]: 5.38 x10E6/uL
HEMATOCRIT [1]: 33.63%
HEMOGLOBIN [1]: 13.17 G/DL
LEUKOCYTE COUNT [1]: 10.2 x10E3/uL
LYMPHOCYTE [1]: 91.17%
MEAN CORPUSCULAR HEMOGLOBIN [1]: 24.5 pg
MEAN CORPUSCULAR HEMOGLOBIN CONCENTRATION [1]: 39.13 G/DL
MEAN CORPUSCULAR VOLUME [1]: 62.53 fL
MONOCYTE [1]: 0.5%
NEUTROPHIL [1]: 8%
NUCLEATED RED BLOOD CELLS [1]: 0.17 /100WBC
PLATELET COUNT [1]: 858 x10E3/uL
ALANINE AMINOTRANSFERASE [1]: 55.67 u/L
ALBUMIN [1]: 4.07 G/DL
ALKALINE PHOSPHATASE [1]: 337 u/L
ASPARTATE AMINOTRANSFERASE [1]: 84 u/L
BLOOD UREA NITROGEN [1]: 13.17 mg/dL
CARBON DIOXIDE [1]: 34.17 mmol/L
CHLORIDE [1]: 99.33 MEQ/L
CHOLESTEROL [1]: 78.83 mg/dL
CREATINE PHOSPHOKINASE [1]: 576.83 u/L
CREATININE [1]: 0.17 mg/dL
GLUCOSE [1]: 152.67 mg/dL
LACTATE DEHYDROGENASE [1]: 147.83 u/L
LIPASE [1]: 9.5 u/L
PHOSPHORUS [1]: 10.78 mg/dL
POTASSIUM [1]: 6.34 MEQ/L
SODIUM [1]: 144.12 MEQ/L
TOTAL BILIRUBIN [1]: 0.18 mg/dL
TOTAL PROTEIN [1]: 6.08 G/DL
URIC ACID [1]: 0.65 mg/dL
ABSOLUTE BASOPHIL [2]: 0 CELLS/uL
ABSOLUTE EOSINOPHIL [2]: 31.17 CELLS/uL
ABSOLUTE LYMPHOCYTE [2]: 7918.33 CELLS/uL
ABSOLUTE MONOCYTE [2]: 58.33 CELLS/uL
ABSOLUTE SEGMENTED NEUTROPHIL [2]: 725.5 CELLS/uL
BASOPHIL [2]: 0%
EOSINOPHIL [2]: 0.33%
ERYTHROCYTE COUNT [2]: 5.32 x10E6/uL
HEMATOCRIT [2]: 33.53%
HEMOGLOBIN [2]: 13.17 G/DL
LEUKOCYTE COUNT [2]: 8.73 x10E3/uL
LYMPHOCYTE [2]: 90.33%
MEAN CORPUSCULAR HEMOGLOBIN [2]: 24.82 pg
MEAN CORPUSCULAR HEMOGLOBIN CONCENTRATION [2]: 39.33 G/DL
MEAN CORPUSCULAR VOLUME [2]: 63.12 fL
MONOCYTE [2]: 0.67%
NEUTROPHIL [2]: 8.67%
NUCLEATED RED BLOOD CELLS [2]: 0 /100WBC
PLATELET COUNT [2]: 1144.83 x10E3/uL
ALANINE AMINOTRANSFERASE [2]: 60.5 u/L
ALBUMIN [2]: 3.97 G/DL
ALKALINE PHOSPHATASE [2]: 343.17 u/L
ASPARTATE AMINOTRANSFERASE [2]: 80.83 u/L
BLOOD UREA NITROGEN [2]: 15 mg/dL
CARBON DIOXIDE [2]: 31 mmol/L
CHLORIDE [2]: 99.75 MEQ/L
CHOLESTEROL [2]: 71.5 mg/dL
CREATINE PHOSPHOKINASE [2]: 237.17 u/L
CREATININE [2]: 0.17 mg/dL
GLUCOSE [2]: 137 mg/dL
LACTATE DEHYDROGENASE [2]: 146.17 u/L
LIPASE [2]: 11.5 u/L
PHOSPHORUS [2]: 10.13 mg/dL
POTASSIUM [2]: 6 MEQ/L
SODIUM [2]: 145 MEQ/L
TOTAL BILIRUBIN [2]: 0.13 mg/dL
TOTAL PROTEIN [2]: 5.82 G/DL
URIC ACID [2]: 0.62 mg/dL
ABSOLUTE BASOPHIL [3]: 0 CELLS/uL
ABSOLUTE EOSINOPHIL [3]: 60.33 CELLS/uL
ABSOLUTE LYMPHOCYTE [3]: 8653.33 CELLS/uL
ABSOLUTE MONOCYTE [3]: 60.33 CELLS/uL
ABSOLUTE SEGMENTED NEUTROPHIL [3]: 526 CELLS/uL
BASOPHIL [3]: 0%
EOSINOPHIL [3]: 0.67%
ERYTHROCYTE COUNT [3]: 5.9 x10E6/uL
HEMATOCRIT [3]: 35.57%
HEMOGLOBIN [3]: 13.63 G/DL
LEUKOCYTE COUNT [3]: 9.3 x10E3/uL
LYMPHOCYTE [3]: 93.33%
MEAN CORPUSCULAR HEMOGLOBIN [3]: 23.13 pg
MEAN CORPUSCULAR HEMOGLOBIN CONCENTRATION [3]: 38.33 G/DL
MEAN CORPUSCULAR VOLUME [3]: 60.33 fL
MONOCYTE [3]: 0.67%
NEUTROPHIL [3]: 5.33%
NUCLEATED RED BLOOD CELLS [3]: 0 /100WBC
PLATELET COUNT [3]: 1025.67 x10E3/uL
ALANINE AMINOTRANSFERASE [3]: 58 u/L
ALBUMIN [3]: 4.17 G/DL
ALKALINE PHOSPHATASE [3]: 448.33 u/L
ASPARTATE AMINOTRANSFERASE [3]: 81 u/L
BLOOD UREA NITROGEN [3]: 13.67 mg/dL
CARBON DIOXIDE [3]: 34.67 mmol/L
CHLORIDE [3]: 99.33 MEQ/L
CHOLESTEROL [3]: 57.33 mg/dL
CREATINE PHOSPHOKINASE [3]: 465.67 u/L
CREATININE [3]: 0.14 mg/dL
GLUCOSE [3]: 134.67 mg/dL
LACTATE DEHYDROGENASE [3]: 171.33 u/L
LIPASE [3]: 9 u/L
PHOSPHORUS [3]: 11.43 mg/dL
POTASSIUM [3]: 6.05 MEQ/L
SODIUM [3]: 145.03 MEQ/L
TOTAL BILIRUBIN [3]: 0.2 mg/dL
TOTAL PROTEIN [3]: 6.13 G/DL
URIC ACID [3]: 0.6 mg/dL
